This passage reports IC50 results from patent US20100144733A1, “Compounds, compositions and methods comprising heteroaromatic derivatives” (Institute for OneWorld Health, priority 2008, published 2010).

SMILES strings stand for the structures.

The target in the first assay is T1, CFTR (Homo sapiens, UniProt P13569).
T1 construct: endogenous in cells; host or cells: T84 human colonic cells (ECACC)
T1 sequence (P13569 whole entry): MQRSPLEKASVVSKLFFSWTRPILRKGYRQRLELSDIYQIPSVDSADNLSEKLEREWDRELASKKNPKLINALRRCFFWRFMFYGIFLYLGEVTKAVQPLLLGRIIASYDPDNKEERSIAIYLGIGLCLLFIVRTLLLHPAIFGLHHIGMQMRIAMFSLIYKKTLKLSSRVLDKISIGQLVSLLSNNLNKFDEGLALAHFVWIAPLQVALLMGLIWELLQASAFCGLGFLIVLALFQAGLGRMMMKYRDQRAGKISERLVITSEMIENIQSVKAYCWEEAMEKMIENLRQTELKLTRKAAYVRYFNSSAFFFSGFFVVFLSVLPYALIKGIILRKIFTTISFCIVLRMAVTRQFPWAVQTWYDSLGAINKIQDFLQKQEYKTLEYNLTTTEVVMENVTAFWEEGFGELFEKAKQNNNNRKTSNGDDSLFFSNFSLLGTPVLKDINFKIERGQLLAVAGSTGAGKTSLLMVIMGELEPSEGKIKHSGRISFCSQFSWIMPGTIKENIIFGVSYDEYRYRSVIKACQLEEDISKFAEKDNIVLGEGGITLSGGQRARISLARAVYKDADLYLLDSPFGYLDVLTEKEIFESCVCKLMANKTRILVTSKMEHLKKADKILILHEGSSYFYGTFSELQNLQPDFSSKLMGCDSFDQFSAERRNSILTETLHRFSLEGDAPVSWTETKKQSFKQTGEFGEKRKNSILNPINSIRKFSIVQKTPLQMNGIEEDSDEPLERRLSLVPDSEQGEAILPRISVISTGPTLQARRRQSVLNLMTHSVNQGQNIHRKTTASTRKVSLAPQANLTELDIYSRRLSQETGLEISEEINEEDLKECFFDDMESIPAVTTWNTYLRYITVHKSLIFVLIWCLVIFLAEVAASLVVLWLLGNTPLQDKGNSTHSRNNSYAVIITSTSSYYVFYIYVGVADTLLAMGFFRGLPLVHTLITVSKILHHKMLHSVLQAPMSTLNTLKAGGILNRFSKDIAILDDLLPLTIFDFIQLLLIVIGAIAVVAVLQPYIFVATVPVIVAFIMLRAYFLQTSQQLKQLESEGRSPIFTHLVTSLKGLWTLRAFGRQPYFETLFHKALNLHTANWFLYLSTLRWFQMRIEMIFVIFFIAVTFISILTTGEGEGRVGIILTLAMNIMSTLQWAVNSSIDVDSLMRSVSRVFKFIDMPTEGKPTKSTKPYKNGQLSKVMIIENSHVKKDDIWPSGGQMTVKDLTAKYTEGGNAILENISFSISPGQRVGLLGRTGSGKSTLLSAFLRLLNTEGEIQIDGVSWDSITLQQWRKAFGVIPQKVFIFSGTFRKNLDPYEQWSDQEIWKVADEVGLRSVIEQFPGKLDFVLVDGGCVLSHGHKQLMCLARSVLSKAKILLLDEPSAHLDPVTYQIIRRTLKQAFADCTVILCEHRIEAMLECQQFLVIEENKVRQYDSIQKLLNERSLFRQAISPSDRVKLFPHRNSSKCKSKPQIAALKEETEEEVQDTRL
Briefly: T84 assay (FLIPR membrane potential dye, forskolin/IBMX-stimulated CFTR channel activity). In kind it is cell-based. Conditions: imidazole and triazole-containing compounds (Tables 13, 14, 14′), read-out: IC50 (μM) (T84 assay). Here is the method: (§1) For example, Human colonic T84 cells can be acquired from the European Collection of Cell Cultures (ECACC) and grown in standard culture conditions as described by the supplier. On the day before assay 25,000 T84 cells per well are plated into standard black walled, clear bottom 384-well assay plates in standard growth medium consisting of DMEM:F12 with 10% FBS and incubated overnight. On the day of the assay the plates are washed using a standard assay buffer (HBSS with 10 mM Hepes) and incubated for 15 minutes in serum free cell culture medium before the addition of a commercially available membrane potential sensitive fluorescent dye (FLIPRRed membrane potential dye, Molecular Devices Corporation). T84 cells are incubated with the FLIPRRed membrane potential dye for 45 minutes in the presence and absence of test compound before being transferred to a commercially available fluorescence imaging plate reader (FLIPR384, Molecular Devices Corporation). Fluorescence levels are monitored continuously every second for 150 seconds; after an initial 10 second baseline, CFTR channel activity is stimulated through the addition of 10 μM forskolin in the presence of 100 μM of the phosphodiesterase inhibitor iso-butyl-methylxanthine (IBMX). Addition of the forskolin leads to the activation of intracellular adenylyl cylase 1, elevating cAMP levels and results in the phosphorylation and opening of CFTR anion channels. CFTR channel opening causes chloride ion efflux and subsequent depolarization of the cells, which is measured by an increase in fluorescence. CFTR inihibitor compounds prevent cell depolarization and the associatred increase in fluorescence.
as §1, with “Human colonic” for “For example, Human colonic”, “T84 cells are acquired from” for “T84 cells can be acquired from”, “(ECACC) and are grown in” for “(ECACC) and grown in”, “10 μM Forskolin in the” for “10 μM forskolin in the”, “fluorescence. CFTR inhibitor compounds prevent” for “fluorescence. CFTR inihibitor compounds prevent”, “and the associated increase in” for “and the associatred increase in”
Take `O=C(c1ncn(-c2cc(Cl)c(O)c(Cl)c2)n1)N1CCC(Cc2ccccc2)CC1` [5i, (4-benzylpiperidin-1-yl)(1-(3,5-dichloro-4-hydroxyphenyl)-1H-1,2,4-triazol-3-yl)methanone]: the 50% inhibitory concentration (IC50) was determined as 15.9 µM.
Still for that read-out and setting: then `COCCOCCOCCOCCN(Cc1ccc(Cl)c(Cl)c1)C(=O)c1ncn(-c2cc(Cl)c(O)c(Cl)c2)n1` [111i, 1-(3,5-dichloro-4-hydroxyphenyl)-N-(3,4-dichlorobenzyl)-N-(2,5,8,11-tetraoxatridecan-13-yl)-1H-1,2,4-triazole-3-carboxamide], with 9.17 µM; and `COCCOCCOCCN(Cc1cccc(OC(F)(F)F)c1)C(=O)c1ncn(-c2cc(Cl)c(O)c(Cl)c2)n1` [113i, 1-(3,5-dichloro-4-hydroxyphenyl)-N-(2-(2-(2-methoxyethoxy)ethoxy)ethyl)-N-(3-(trifluoromethoxy)benzyl)-1H-1,2,4-triazole-3-carboxamide], with 23.5 µM; and `CON(Cc1ccc(C(C)C)cc1)C(=O)c1ncn(-c2cc(Cl)c(O)c(Cl)c2)n1` [128i, 1-(3,5-dichloro-4-hydroxyphenyl)-N-(4-isopropylbenzyl)-N-methoxy-1H-1,2,4-triazole-3-carboxamide], with 2.19 µM.
The same measure, in the same setting: then `CN(Cc1ccc(Cl)cc1)C(=O)c1ncn(-c2cc(Cl)c(O)c(Cl)c2)n1` [22i, N-(4-chlorobenzyl)-1-(3,5-dichloro-4-hydroxyphenyl)-N-methyl-1H-1,2,4-triazole-3-carboxamide], with 18.1 µM.
`CC(C)(C)c1ccc(CN(CCOCCOCCOCCOCCOCCOCc2ccccc2)C(=O)c2ncn(-c3cc(Cl)c(O)c(Cl)c3)n2)cc1` [116i, N-(4-tert-butylbenzyl)-1-(3,5-dichloro-4-hydroxyphenyl)-N-(1-phenyl-2,5,8,11,14,17-hexaoxanonadecan-19-yl)-1H-1,2,4-triazole-3-carboxamide]: the IC50 was 2.8 µM.

The same assay, now with this note: oxadiazole-containing compounds (a series), average of at least 2 runs unless annotated n = 1, read-out: IC50.
Regarding `O=C(NCc1cc(F)cc(C(F)(F)F)c1)c1nc(-c2cc(Cl)c(O)c(Cl)c2)no1` [154a, 3-(3,5-dichloro-4-hydroxyphenyl)-N-(3-fluoro-5-(trifluoromethyl)benzyl)-1,2,4-oxadiazole-5-carboxamide], the 50% inhibitory concentration (IC50) is 3.89 µM.
Still for that read-out and setting: then `O=C(NCc1ccc(F)cc1)c1noc(-c2cc(Cl)c(O)c(Cl)c2)n1` [115a, 5-(3,5-dichloro-4-hydroxyphenyl)-N-(4-fluorobenzyl)-1,2,4-oxadiazole-3-carboxamide], with 11.8 µM.
The same measure, in the same setting: the result for `O=C(NCc1ccc(F)c(F)c1)c1noc(-c2cc(Cl)c(O)c(Cl)c2)n1` [80a, 5-(3,5-dichloro-4-hydroxyphenyl)-N-(3,4-difluorobenzyl)-1,2,4-oxadiazole-3-carboxamide] reads 8.14 µM; that for `CCc1ccc(CN(C)C(=O)c2nc(-c3cc(Cl)c(O)c(Cl)c3)no2)cc1` [150a, 3-(3,5-dichloro-4-hydroxyphenyl)-N-(4-ethylbenzyl)-N-methyl-1,2,4-oxadiazole-5-carboxamide], 6.25 µM; that for `O=C(NCc1cccc(C(F)(F)F)c1)c1nc(-c2cc(Br)c(O)c(Br)c2)no1` [27a, 3-(3,5-dibromo-4-hydroxyphenyl)-N-(3-(trifluoromethyl)benzyl)-1,2,4-oxadiazole-5-carboxamide], 14.6 µM.
On the same count and under the same terms, then `O=C(O)COc1c(Br)cc(-c2noc(C(=O)N3CCC(Cc4ccccc4)CC3)n2)cc1Br` [39a, 2-(4-(5-(4-benzylpiperidine-1-carbonyl)-1,2,4-oxadiazol-3-yl)-2,6-dibromophenoxy) acetic acid], with 26.7 µM; and `O=C(NCc1cccc(-c2ccccc2)c1)c1nc(-c2cc(Cl)c(O)c(Cl)c2)no1` [125a, N-(biphenyl-3-ylmethyl)-3-(3,5-dichloro-4-hydroxyphenyl)-1,2,4-oxadiazole-5-carboxamide], with 6.76 µM.
Turning to `O=C(c1nc(-c2cc(Br)c(O)c(Br)c2)no1)N1CCN(c2ccc(Cl)cc2F)CC1` [19a, (4-(4-chloro-2-fluorophenyl)piperazin-1-yl)(3-(3,5-dibromo-4-hydroxyphenyl)-1,2,4-oxadiazol-5-yl)methanone], the IC50 was 7.1 µM.
The same measure, in the same setting: then `O=C(COc1c(Br)cc(-c2noc(C(=O)N3CCC(Cc4ccccc4)CC3)n2)cc1Br)N(CCO)CCO` [71a, 2-(4-(5-(4-benzylpiperidine-1-carbonyl)-1,2,4-oxadiazol-3-yl)-2,6-dibromophenoxy)-N,N-bis(2-hydroxyethyl)acetamide], with 18.9 µM; and `CCOc1ccc(Oc2ccc(CNC(=O)c3nc(-c4cc(Cl)c(O)c(Cl)c4)no3)cc2)cc1Cl` [184a, N-(4-(3-chloro-4-ethoxyphenoxy)benzyl)-3-(3,5-dichloro-4-hydroxyphenyl)-1,2,4-oxadiazole-5-carboxamide], with 13.6 µM.
In the case of `CN(Cc1ccc(C(C)(C)C)cc1)C(=O)c1nc(-c2cc(Cl)c(O)c(Cl)c2)no1` [148a, N-(4-tert-butylbenzyl)-3-(3,5-dichloro-4-hydroxyphenyl)-N-methyl-1,2,4-oxadiazole-5-carboxamide], the half-maximal inhibitory concentration (IC50) is 8.26 µM.
Turning to `CC#CCN(Cc1cccc(C(F)(F)F)c1)C(=O)c1nc(-c2cc(Cl)c(O)c(Cl)c2)no1` [98a, N-(but-2-ynyl)-3-(3,5-dichloro-4-hydroxyphenyl)-N-(3-(trifluoromethyl)benzyl)-1,2,4-oxadiazole-5-carboxamide], the half-inhibitory concentration (IC50) worked out at 2.86 µM.
In the case of `CC(C)(C)C(=O)CN(Cc1ccccc1)C(=O)c1nc(-c2cc(Cl)c(O)c(Cl)c2)no1` [151a, N-benzyl-3-(3,5-dichloro-4-hydroxyphenyl)-N-(3,3-dimethyl-2-oxobutyl)-1,2,4-oxadiazole-5-carboxamide], the IC50 worked out at 6.24 µM.
Still for that read-out and setting: the result for `CCN(Cc1cccc(C(F)(F)F)c1)C(=O)c1nc(-c2cc(Br)c(O)c(Br)c2)no1` [60a, 3-(3,5-Dibromo-4-hydroxyphenyl)-N-ethyl-N-(3-(trifluormethyl)benzyl)-1,2,4-oxadiazole-5-carboxamide] reads 12.6 µM; that for `O=C(CN(Cc1cccc(C(F)(F)F)c1)C(=O)c1nc(-c2cc(Cl)c(O)c(Cl)c2)no1)c1ccccc1` [90a, 3-(3,5-dichloro-4-hydroxyphenyl)-N-(2-oxo-2-phenylethyl)-N-(3-(trifluoromethyl)benzyl)-1,2,4-oxadiazole-5-carboxamide], 8.38 µM; that for `O=C(NCc1ccc(Oc2ccc(Br)cc2)cc1)c1nc(-c2cc(Cl)c(O)c(Cl)c2)no1` [182a, N-(4-(4-bromophenoxy)benzyl)-3-(3,5-dichloro-4-hydroxyphenyl)-1,2,4-oxadiazole-5-carboxamide], 8.03 µM.
Still for that read-out and setting: the result for `CN(C)c1cccc(Oc2ccc(CNC(=O)c3nc(-c4cc(Cl)c(O)c(Cl)c4)no3)cc2)c1` [199a, 3-(3,5-dichloro-4-hydroxyphenyl)-N-(4-(3-(dimethylamino)phenoxy)benzyl)-1,2,4-oxadiazole-5-carboxamide] reads 12.2 µM; that for `O=C(c1nc(-c2cc(Br)c(O)c(Br)c2)no1)N1CCN(c2ccccc2)CC1` [16a, (3-(3,5-dibromo-4-hydroxyphenyl)-1,2,4-oxadiazol-5-yl)(4-phenylpiperazin-1-yl)methanone], 9.13 µM.
On to `O=C(NCc1cc(Cl)cc(Cl)c1)c1noc(-c2cc(Cl)c(O)c(Cl)c2)n1` [85a, 5-(3,5-dichloro-4-hydroxyphenyl)-N-(3,5-dichlorobenzyl)-1,2,4-oxadiazole-3-carboxamide], for which the IC50 came out at 2.33 µM.
`COc1ccc(Oc2ccc(CNC(=O)c3nc(-c4cc(Cl)c(O)c(Cl)c4)no3)cc2)cc1F` [183a, 3-(3,5-dichloro-4-hydroxyphenyl)-N-(4-(3-fluoro-4-methoxyphenoxy)benzyl)-1,2,4-oxadiazole-5-carboxamide]: the IC50 was found to be 11.7 µM.
Still for that read-out and setting: then `O=C(NCc1cccc(OC(F)(F)F)c1)c1noc(-c2cc(Cl)c(O)c(Cl)c2)n1` [75a, 5-(3,5-dichloro-4-hydroxyphenyl)-N-(3-(trifluoromethoxy)benzyl)-1,2,4-oxadiazole-3-carboxamide], with 2.09 µM.

Still in this assay, the particulars now being: thiadiazole-containing compounds (Table 12), read-out: IC50.
Take `Oc1c(Cl)cc(-c2nnc(COc3cccc(C(F)(F)F)c3)s2)cc1Cl` [7h, 2,6-dichloro-4(5-((3-(trifluoromethyl)phenoxy)methyl)-1,3,4-thiadiazol-2-yl)phenol]: the half-inhibitory concentration (IC50) was determined as 23.4 µM.
